In brackets after ≈: the same amount, converted by molar mass. Activity calls are given as the source filed them. No cut-off for these calls is given here.
Experiments:
[1] = tested on: Mus musculus; experiment: Central serotoninmimetic activity in CF mouse assessed as induction of head twitches at 6 mg/kg, ip after 60 mins; format: functional, organism-based; design: dose 6 mg/kg
[2] = tested on: Mus musculus; experiment: Central serotoninmimetic activity in CF mouse assessed as induction of head twitches at 30 mg/kg, ip after 60 mins; format: functional, organism-based; design: dose 30 mg/kg
[3] = Peripheral serotoninmimetic activity in Charles River rat uterus assessed as uterine contraction measured as tension developed at 0.00050 ug/ml relative to methacholine; format: ADME, tissue-based
[4] = Peripheral serotoninmimetic activity in Charles River rat uterus assessed as uterine contraction measured as tension developed at 0.00075 ug/ml relative to methacholine; format: ADME, tissue-based
[5] = Peripheral serotoninmimetic activity in Charles River rat uterus assessed as uterine contraction measured as tension developed at 0.1 ug/ml; format: ADME, tissue-based
[6] = Peripheral serotoninmimetic activity in Charles River rat uterus assessed as uterine contraction measured as tension developed at 0.00075 ug/ml; format: ADME, tissue-based
[7] = Peripheral serotoninmimetic activity in Charles River rat uterus assessed as uterine contraction measured as tension developed at 0.001 ug/ml relative to methacholine; format: ADME, tissue-based
[8] = Peripheral serotoninmimetic activity in Charles River rat uterus assessed as uterine contraction; format: ADME, tissue-based
[9] = Peripheral serotoninmimetic activity in Charles River rat uterus assessed as uterine contraction measured as tension developed at 0.01 ug/ml in presence of methylsergide; format: ADME, tissue-based
[10] = Peripheral serotoninmimetic activity in Charles River rat uterus assessed as uterine contraction measured as tension developed at 0.01 ug/ml relative to methacholine; format: ADME, tissue-based
[11] = Peripheral serotoninmimetic activity in Charles River rat uterus assessed as uterine contraction measured as tension developed at 0.01 ug/ml; format: ADME, tissue-based
[12] = Peripheral serotoninmimetic activity in Charles River rat uterus assessed as uterine contraction measured as tension developed at 0.05 ug/ml; format: ADME, tissue-based
[13] = Peripheral serotoninmimetic activity in Charles River rat uterus assessed as uterine contraction measured as tension developed at 0.01 ug/ml in presence of hydroxindasol; format: ADME, tissue-based
[14] = Peripheral serotoninmimetic activity in Charles River rat uterus assessed as uterine contraction measured as tension developed at 0.001 ug/ml; format: ADME, tissue-based
[15] = Peripheral serotoninmimetic activity in Charles River rat uterus assessed as uterine contraction measured as tension developed at 0.005 ug/ml relative to methacholine; format: ADME, tissue-based
[16] = Peripheral serotoninmimetic activity in Charles River rat uterus assessed as uterine contraction measured as tension developed at 0.00050 ug/ml; format: ADME, tissue-based
[17] = Peripheral serotoninmimetic activity in Charles River rat uterus assessed as uterine contraction measured as tension developed at 0.005 ug/ml; format: ADME, tissue-based
[18] = Peripheral serotoninmimetic activity in Charles River rat uterus assessed as uterine contraction measured as tension developed at 10 ug/ml relative to methacholine; format: ADME, tissue-based
[19] = Peripheral serotoninmimetic activity in Charles River rat uterus assessed as uterine contraction measured as tension developed at 10 ug/ml in presence of hydroxindasol; format: ADME, tissue-based
[20] = tested on: Mus musculus; experiment: Central serotoninmimetic activity in CF mouse assessed as induction of head twitches at 10 mg/kg, ip after 30 to 60 mins in presence of cyproheptadine; format: functional, organism-based; design: dose 10 mg/kg
[21] = Peripheral serotoninmimetic activity in Charles River rat uterus assessed as uterine contraction measured as tension developed at 1 ug/ml; format: ADME, tissue-based
[22] = tested on: Mus musculus; experiment: Central serotoninmimetic activity in CF mouse assessed as induction of head twitches at 60 mg/kg, ip after 30 mins in presence of xylamidine; format: functional, organism-based; design: dose 60 mg/kg
[23] = Peripheral serotoninmimetic activity in Charles River rat uterus assessed as uterine contraction measured as tension developed at 0.5 ug/ml; format: ADME, tissue-based
[24] = Peripheral serotoninmimetic activity in Charles River rat uterus assessed as uterine contraction measured as tension developed at 5 ug/ml; format: ADME, tissue-based
[25] = Peripheral serotoninmimetic activity in Charles River rat uterus assessed as uterine contraction measured as tension developed at 5 ug/ml relative to methacholine; format: ADME, tissue-based
[26] = tested on: Mus musculus; experiment: Central serotoninmimetic activity in CF mouse assessed as induction of head twitches at 10 mg/kg, ip after 30 to 60 mins in presence of methergoline; format: functional, organism-based; design: dose 10 mg/kg
[27] = Peripheral serotoninmimetic activity in Charles River rat uterus assessed as uterine contraction measured as tension developed at 1 ug/ml relative to methacholine; format: ADME, tissue-based
[28] = Ratio of serotonin EC50 to compound EC50 for peripheral serotoninmimetic activity in Charles River rat uterus; format: ADME, tissue-based
[29] = tested on: Mus musculus; experiment: Central serotoninmimetic activity in CF mouse assessed as induction of head twitches at 10 mg/kg, ip after 30 mins in presence of xylamidine; format: functional, organism-based; design: dose 10 mg/kg
[30] = Peripheral serotoninmimetic activity in Charles River rat uterus assessed as uterine contraction measured as tension developed at 20 ug/ml; format: ADME, tissue-based
[31] = Peripheral serotoninmimetic activity in Charles River rat uterus assessed as uterine contraction measured as tension developed at 10 ug/ml in presence of methylsergide; format: ADME, tissue-based
[32] = Peripheral serotoninmimetic activity in Charles River rat uterus assessed as uterine contraction measured as tension developed at 10 ug/ml; format: ADME, tissue-based
[33] = Peripheral serotoninmimetic activity in Charles River rat uterus assessed as uterine contraction measured as tension developed at 0.5 ug/ml relative to methacholine; format: ADME, tissue-based

Compound: Clc1cncc(N2CCN(c3cncc(Cl)n3)CC2)n1
- Activity [1]: inactive

Compound: O=C1CN(c2cncc(Cl)n2)CCN1
- Activity [2]: inactive
- Activity [1]: inactive

Compound: c1ccc(-c2cncc(N3CCNCC3)n2)cc1
- Activity [2]: inactive

Compound: CN(C)CCCN1CCN(c2cncc(Cl)n2)CC1
- Activity [2]: inactive
- Activity [1]: inactive

Compound: c1ccc2nc(N3CCNCC3)ccc2c1
- Activity [2]: inactive
- Activity [1]: inactive

Compound: NCCc1c[nH]c2ccc(O)cc12 [SEROTONIN]
- Emax [3]: 7%
- Emax [4]: 37%
- Activity [5]: 3.2 g
- Activity [6]: 1.23 g
- Emax [7]: 70%
- EC50 [8]: 0.0083 µg/mL (≈ 0.0471 µM)
- Activity [9]: Non-toxic
- Emax [10]: 92%
- Activity [11]: 3.08 g
- Activity [12]: 3.18 g
- Activity [13]: Non-toxic
- Activity [14]: 2.32 g
- Emax [15]: 80%
- Activity [16]: 0.22 g
- Activity [17]: 2.67 g

Compound: CN(C)c1cncc(N2CCNCC2)n1
- Activity [2]: inactive
- Activity [1]: inactive

Compound: Clc1nccnc1N1CCNCC1
- Activity [2]: inactive
- Activity [1]: inactive

Compound: Cl.Clc1cncc(N2CCNCC2)n1
- Emax [18]: 86%
- Activity [19]: Non-toxic
- Activity [2]: Active
- Activity [20]: inactive
- Activity [21]: 0.4 g
- Activity [5]: 0 g
- Activity [22]: inactive
- EC50 [8]: 2.411 µg/mL
- Activity [23]: 0.27 g
- Activity [24]: 2.12 g
- Emax [25]: 80%
- Activity [26]: inactive
- Emax [27]: 15%
- Ratio EC50 [28]: 300
- Activity [29]: Active
- Activity [1]: Active
- Activity [30]: 2.42 g
- Activity [31]: Non-toxic
- Activity [32]: 2.28 g
- Emax [33]: 10%

Compound: N#Cc1cncc(N2CCNCC2)n1
- Activity [2]: inactive
- Activity [1]: inactive

Compound: Clc1cnc(N2CCNCC2)cn1
- Activity [1]: inactive

Compound: c1ccc(-c2cnc(N3CCNCC3)cn2)cc1
- Activity [2]: inactive
- Activity [1]: inactive

Compound: Cc1cncc(N2CCNCC2)n1
- Activity [2]: Active
- Activity [1]: Active

Compound: COC(=O)c1nc(Cl)c(N2CCNCC2)nc1N
- Activity [2]: inactive

Compound: CC(=O)OC(C)C[N+](C)(C)C (stereo unspecified) [METHACHOLINE]
- Activity [21]: 2.65 g

Compound: c1cnc(N2CCNCC2)cn1
- Activity [1]: inactive

Compound: Cc1nccnc1N1CCNCC1
- Activity [2]: inactive
- Activity [1]: inactive

Compound: Cc1cnc(C)c(N2CCNCC2)n1
- Activity [1]: inactive

Compound: CS(=O)(=O)c1cncc(N2CCNCC2)n1
- Activity [1]: inactive

— ChEMBL document CHEMBL3244102, “Piperazinylpyrazines with central serotoninmimetic activity” (J Med Chem, 1978)
